What is called EC50 is the concentration needed to bring the measured effect to its halfway point.

Data set [1] can be described thus: Assessment of physical stability (Thioflavin T fibrillation). The data set is classed as physicochemical. Also on record: key: FND = fibrillation not detected; FD = fibrillation detected. To be noted: 1 mg/ml, 40° C., ThT; for Fibrillation pH 4.0 (Ac): 50 mM acetate buffer pH 4.0, 96 hours; for Fibrillation pH 7.0 (His): 50 mM histidine buffer pH 7.0, 96 hours; for Fibrillation pH 7.0 (Phos.): 50 mM phosphate buffer pH 7.0, 96 hours. In short, it runs like this:
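1 mg/ml peptide with 40 μM ThT in 50 mM phosphate pH 7.0, 50 mM histidine pH 7.0 or 50 mM acetate pH 4.0, in triplicate. Fluorescence read every 10 min after 300 s agitation over 96 h at 40 °C. Lag-time (h) is the intersection of linear fits to stable and growth phases.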

Data set [2] in a line: Pharmacokinetic (PK) profiling in rats. The class given is in vivo, rat. Particulars: Sprague Dawley male rats, single sc 30 nmol/kg; for half-life: rat, plasma, read-out: Plasma terminal elimination half-life t1/2 (converted). Also on record: CI/F (apparent clearance values): unit not given here. As for the experimental part: Sprague Dawley male rats were given a single subcutaneous (sc) bolus of each peptide to be tested, as specified below. 30 nmol/kg doses of compound were administered. Blood samples were drawn from the tail vein prior to dosing and at 24, 48, 72, 96 and 168 hours after dosing. Blood samples were taken from two rats at each time point, and only 2 blood samples were drawn from each rat, i.e. […] were used for each compound. The rats were euthanized immediately after the last blood sampling by concussion and cervical dislocation.
The dosing vehicle used for each test peptide was a mannitol-containing histidine buffer (pH 7.0). Plasma samples were analyzed after precipitation with ethanol by liquid chromatography mass spectrometry (LC-MS/MS). Mean plasma concentrations were used for calculation of the pharmacokinetic parameters using the non-compartmental approach in Phoenix WinNonlin 6.3.
Plasma terminal elimination half-life (t1/2) was determined as ln(2)/λz, where λz is the magnitude of the slope of the log linear regression of the log concentration versus time profile during the terminal phase. Apparent clearance (CL/F) was determined as dose/AUCinf (sc), where AUCinf is the area under the plasma concentration vs. time curve extrapolated to infinity (AUCinf=AUClast+Clast/λz, where Clast is the last observed plasma concentration).

Data set [3] has as its target T1, human amylin receptor 3 (hAMYR3), hCTR2 co-expressed with hRAMP3 (Homo sapiens, UniProt O60896+P30988).
T1 construct: expressed in transfected cells
T1 sequence (P30988 25-474): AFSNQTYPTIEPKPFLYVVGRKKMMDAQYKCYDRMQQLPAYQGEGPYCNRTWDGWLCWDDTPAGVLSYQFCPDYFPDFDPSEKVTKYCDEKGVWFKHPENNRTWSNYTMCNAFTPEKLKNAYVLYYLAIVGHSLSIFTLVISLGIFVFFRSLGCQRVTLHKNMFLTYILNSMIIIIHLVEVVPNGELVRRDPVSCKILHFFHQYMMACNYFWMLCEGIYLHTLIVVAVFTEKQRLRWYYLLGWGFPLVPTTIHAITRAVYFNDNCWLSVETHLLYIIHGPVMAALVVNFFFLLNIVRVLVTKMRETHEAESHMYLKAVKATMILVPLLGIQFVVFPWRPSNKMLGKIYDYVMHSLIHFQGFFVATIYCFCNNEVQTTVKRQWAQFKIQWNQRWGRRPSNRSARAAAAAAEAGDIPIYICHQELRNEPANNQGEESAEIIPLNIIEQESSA
T1 sequence (O60896 24-148 partner): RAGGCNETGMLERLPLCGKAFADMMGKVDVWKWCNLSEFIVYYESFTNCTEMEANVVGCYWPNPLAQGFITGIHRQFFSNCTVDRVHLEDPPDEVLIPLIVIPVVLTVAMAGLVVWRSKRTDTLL
Briefly: hAMYR3 cAMP assay (AlphaScreen) in COS7 cells. The class given is cell-based. To be noted: cAMP induction, COS7 cells expressing hAMYR3; Table 1; read-out: hAMYR3 EC50. The gist of the method: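 Stable COS7 clone co-expressing hCTR2 and hRAMP3 was exposed to increasing peptide concentrations in Tyrode buffer (pH 7.4) with 100 µM IBMX and 0.1% casein for 15 min at 37 °C. Lysate cAMP was measured by AlphaScreen; EC50 came from 4-parameter logistic fitting.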
On the technique in general: Cyclic AMP is a second messenger, typically raised through Gs and lowered through Gi signalling.

Each structure is given as a SMILES string. *1 amine or outer side, *2 acyl side, *3 side chain or, on linkers, in order; H or OH if unused. Where a SMILES comes first, the peptide text is derived from it. Bridges are numbered along the chain shown (N, C = ends). [ ]: non-standard residue; d: D form. The star is where a group is joined. C20 diacid = O=C(O)CCCCCCCCCCCCCCCCCCC(=O)*; γGlu = O=C(O)[C@H](CCC(=O)[*:2])N[*:1]; Hyp = O=C(O)[C@@H]1C[C@@H](O)CN1; NMeI = CC[C@H](C)[C@H](NC)C(=O)O; Aad = N[C@@H](CCCC(=O)O)C(=O)O; Sar = CNCC(=O)O

`CC[C@H](C)[C@@H](C(=O)N[C@@H](CC(C)C)C(=O)N[C@@H](CO)C(=O)N[C@@H](CO)C(=O)N[C@H](C(=O)N[C@@H](CCC(=O)O)C(=O)N[C@H](C(=O)NCC(=O)N[C@@H](CO)C(=O)N[C@@H](CC(N)=O)C(=O)N[C@H](C(=O)N1C[C@H](O)C[C@H]1C(N)=O)[C@@H](C)O)C(C)C)[C@@H](C)O)N(C)C(=O)[C@H](C)NC(=O)CN(C)C(=O)[C@H](Cc1ccccc1)NC(=O)[C@H](CO)NC(=O)[C@H](CO)NC(=O)[C@H](CCCNC(=N)N)NC(=O)[C@H](CCC(N)=O)NC(=O)[C@H](CC(C)C)NC(=O)[C@H](Cc1ccccc1)NC(=O)[C@H](CCCC(=O)O)NC(=O)[C@H](C)NC(=O)[C@H](CC(C)C)NC(=O)[C@H](CCCNC(=N)N)NC(=O)[C@H](CCC(=O)O)NC(=O)[C@@H](NC(=O)[C@H](C)NC(=O)[C@@H]1CSSC[C@H](NC(=O)[C@H](CCCNC(=N)N)NC(=O)CC[C@H](NC(=O)CCCCCCCCCCCCCCCCCCC(=O)O)C(=O)O)C(=O)NCC(=O)N[C@@H]([C@@H](C)O)C(=O)N[C@@H](C)C(=O)N[C@@H]([C@@H](C)O)C(=O)N1)[C@@H](C)O` [Compound 55, [19CD]-isoGlu-R-C( )-GTAT-C( )-ATERLA-Aad-FLQRSSF-Gly(Me)-A-Ile(Me)-LSSTEVGSNT-Hyp-NH2] ({C20 diacid-γGlu}-RCGTATCATERLA[Aad]FLQRSSF[Sar]A[NMeI]LSSTEVGSNT[Hyp]-NH2; disulfide 2-7): in data set [1], the “Fibrillation pH 4.0 (Ac)” value was “FND”, the “Fibrillation pH 7.0 (His)” value is reported as “FND” and the “Fibrillation pH 7.0 (Phos.)” value is “FND”. In data set [2], the “CI/F (apparent clearance values)” value was found to be 0.0045 and the half-life was 1570 min. For the same compound, in data set [3], the EC50 stood at 0.08 nM.
Take `CC[C@H](C)[C@@H](C(=O)N[C@@H](CC(C)C)C(=O)N[C@@H](CO)C(=O)N[C@@H](CO)C(=O)N[C@H](C(=O)N[C@@H](CCC(=O)O)C(=O)N[C@H](C(=O)NCC(=O)N[C@@H](CO)C(=O)N[C@@H](CC(N)=O)C(=O)N[C@H](C(=O)N1C[C@H](O)C[C@H]1C(N)=O)[C@@H](C)O)C(C)C)[C@@H](C)O)N(C)C(=O)[C@H](C)NC(=O)CN(C)C(=O)[C@H](Cc1ccccc1)NC(=O)[C@H](CO)NC(=O)[C@H](CO)NC(=O)[C@H](CCCNC(=N)N)NC(=O)[C@H](CCC(N)=O)NC(=O)[C@H](CC(C)C)NC(=O)[C@H](Cc1ccccc1)NC(=O)[C@H](Cc1c[nH]cn1)NC(=O)[C@H](C)NC(=O)[C@H](CC(C)C)NC(=O)[C@H](CCCNC(=N)N)NC(=O)[C@H](CCC(=O)O)NC(=O)[C@@H](NC(=O)[C@H](C)NC(=O)[C@@H]1CSSC[C@H](NC(=O)[C@H](CCCNC(=N)N)NC(=O)CC[C@H](NC(=O)CCCCCCCCCCCCCCCCCCC(=O)O)C(=O)O)C(=O)N[C@@H](CCC(N)=O)C(=O)N[C@@H]([C@@H](C)O)C(=O)N[C@@H](C)C(=O)N[C@@H]([C@@H](C)O)C(=O)N1)[C@@H](C)O` [Compound 57, [19CD]-isoGlu-R-C( )-QTAT-C( )-ATERLAHFLQRSSF-Gly(Me)-A-Ile(Me)-LSSTEVGSNT-Hyp-NH2] ({C20 diacid-γGlu}-RCQTATCATERLAHFLQRSSF[Sar]A[NMeI]LSSTEVGSNT[Hyp]-NH2; disulfide 2-7): in data set [1], the “Fibrillation pH 4.0 (Ac)” value is given as “FND”, the “Fibrillation pH 7.0 (His)” value is reported as “FND” and the “Fibrillation pH 7.0 (Phos.)” value is on record as “FND”. In data set [2], the “CI/F (apparent clearance values)” value worked out at 0.0078 and the half-life was 1070 min. The EC50 in data set [3] was determined as 0.11 nM.
As for `CC[C@H](C)[C@@H](C(=O)N[C@@H](CC(C)C)C(=O)N[C@@H](CO)C(=O)N[C@@H](CO)C(=O)N[C@H](C(=O)N[C@@H](CCC(=O)O)C(=O)N[C@H](C(=O)NCC(=O)N[C@@H](CO)C(=O)N[C@@H](CC(N)=O)C(=O)N[C@H](C(=O)N1C[C@H](O)C[C@H]1C(N)=O)[C@@H](C)O)C(C)C)[C@@H](C)O)N(C)C(=O)[C@H](C)NC(=O)CN(C)C(=O)[C@H](Cc1ccccc1)NC(=O)[C@H](CO)NC(=O)[C@H](CO)NC(=O)[C@H](CCCNC(=N)N)NC(=O)[C@H](CCC(N)=O)NC(=O)[C@H](CC(C)C)NC(=O)[C@H](Cc1ccccc1)NC(=O)[C@H](CC(=O)O)NC(=O)[C@H](C)NC(=O)[C@H](CC(C)C)NC(=O)[C@H](CCCNC(=N)N)NC(=O)[C@H](CCC(N)=O)NC(=O)[C@@H](NC(=O)[C@H](C)NC(=O)[C@@H]1CSSC[C@H](NC(=O)[C@H](CCCNC(=N)N)NC(=O)CC[C@H](NC(=O)CCCCCCCCCCCCCCCCCCC(=O)O)C(=O)O)C(=O)N[C@@H](CC(N)=O)C(=O)N[C@@H]([C@@H](C)O)C(=O)N[C@@H](C)C(=O)N[C@@H]([C@@H](C)O)C(=O)N1)[C@@H](C)O` [Compound 49, [19CD]-isoGlu-R-C( )-NTAT-C( )-ATQRLADFLQRSSF-Gly(Me)-A-Ile(Me)-LSSTEVGSNT-Hyp-NH2] ({C20 diacid-γGlu}-RCNTATCATQRLADFLQRSSF[Sar]A[NMeI]LSSTEVGSNT[Hyp]-NH2; disulfide 2-7), in data set [1], the “Fibrillation pH 4.0 (Ac)” value is listed as “FD”, the “Fibrillation pH 7.0 (His)” value is on record as “FND” and the “Fibrillation pH 7.0 (Phos.)” value is listed as “FND”. In data set [2], the “CI/F (apparent clearance values)” value is reported as 0.00406 and the half-life was 2200 min. In data set [3], the EC50 was determined as 0.15 nM.
Turning to `CC[C@H](C)[C@@H](C(=O)N[C@@H](CC(C)C)C(=O)N[C@@H](CO)C(=O)N[C@@H](CO)C(=O)N[C@H](C(=O)N[C@@H](CCC(=O)O)C(=O)N[C@H](C(=O)NCC(=O)N[C@@H](CO)C(=O)N[C@@H](CO)C(=O)N[C@H](C(=O)N1CCC[C@H]1C(N)=O)[C@@H](C)O)C(C)C)[C@@H](C)O)N(C)C(=O)[C@H](C)NC(=O)CN(C)C(=O)[C@H](Cc1ccccc1)NC(=O)[C@H](CO)NC(=O)[C@H](CO)NC(=O)[C@H](CCCNC(=N)N)NC(=O)[C@H](CCC(N)=O)NC(=O)[C@H](CC(C)C)NC(=O)[C@H](Cc1ccccc1)NC(=O)[C@H](Cc1c[nH]cn1)NC(=O)[C@H](C)NC(=O)[C@H](CC(C)C)NC(=O)[C@H](CCCNC(=N)N)NC(=O)[C@H](CCC(=O)O)NC(=O)[C@@H](NC(=O)[C@H](C)NC(=O)[C@@H]1CSSC[C@H](NC(=O)[C@H](CCCNC(=N)N)NC(=O)CC[C@H](NC(=O)CCCCCCCCCCCCCCCCCCC(=O)O)C(=O)O)C(=O)NCC(=O)N[C@@H]([C@@H](C)O)C(=O)N[C@@H](C)C(=O)N[C@@H]([C@@H](C)O)C(=O)N1)[C@@H](C)O` [Compound 34, [19CD]-isoGlu-R-C( )-GTAT-C( )-ATERLAHFLQRSSF-Gly(Me)-A-Ile(Me)-LSSTEVGSSTP-NH2] ({C20 diacid-γGlu}-RCGTATCATERLAHFLQRSSF[Sar]A[NMeI]LSSTEVGSSTP-NH2; disulfide 2-7), in data set [1], the “Fibrillation pH 4.0 (Ac)” value is listed as “FND”, the “Fibrillation pH 7.0 (His)” value is listed as “FND” and the “Fibrillation pH 7.0 (Phos.)” value is reported as “FND”. Further, in data set [2], the “CI/F (apparent clearance values)” value is given as 0.0148. The EC50 in data set [3] was 0.12 nM.

(Values after patent US20210115104A1, “AMYLIN ANALOGUES” (Zealand Pharma A/S, priority 2015, published 2021).)
